Data set [1] addresses T1, cannabinoid receptors (Mus musculus, UniProt P47746).
T1 construct: from tissue; host or cells: whole living mouse (in vivo hypothermia test)
Kind of data set: antagonism of hypothermia induced by WIN 55 212-2 in mice. The class given is in vivo.

Data set [2] in a line: penetration of the blood-brain barrier / central nervous system. The class given is in vivo.
Data set [3] relates to rats. Kind of data set: test of the central memory in rats (Perio et al.). Type of data set: in vivo. The settings on record: subcutaneous administration.
A short description of data set [4]: toxicity.

T1 sequence (P47746 whole entry): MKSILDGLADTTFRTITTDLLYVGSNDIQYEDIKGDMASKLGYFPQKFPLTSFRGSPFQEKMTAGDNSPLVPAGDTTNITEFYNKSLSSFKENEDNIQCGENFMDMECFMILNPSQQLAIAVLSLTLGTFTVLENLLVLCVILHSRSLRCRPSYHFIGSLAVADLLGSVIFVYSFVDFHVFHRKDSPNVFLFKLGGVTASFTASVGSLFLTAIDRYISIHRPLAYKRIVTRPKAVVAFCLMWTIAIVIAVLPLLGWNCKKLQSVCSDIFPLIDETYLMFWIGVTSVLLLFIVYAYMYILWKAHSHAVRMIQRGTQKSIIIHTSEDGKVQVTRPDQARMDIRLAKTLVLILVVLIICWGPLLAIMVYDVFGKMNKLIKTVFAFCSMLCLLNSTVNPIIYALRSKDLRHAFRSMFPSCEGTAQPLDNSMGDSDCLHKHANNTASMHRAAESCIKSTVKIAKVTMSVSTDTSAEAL

Regarding `Cc1c(C(=O)NN2CCCCC2)nn(-c2ccc(Cl)cc2Cl)c1-c1ccc(Cl)cc1` [N-piperidino-5-(4-chlorophenyl)-1-(2,4-dichlorophenyl)-4-methyl-pyrazole-3-carboxamide], the “duration of action in the hypothermia test” value in data set [1] (mice, after oral administration of 3 mg/kg) was 8 to 10 h. Moreover, the “ED50, antagonism of WIN 55 212-2 induced hypothermia” value worked out at 0.3 mg/kg in data set [1] (mice, i.p.) and 0.4 mg/kg in data set [1] (mice, per os). For the same compound, in data set [1] (oral), the “activity upon oral administration” value was “active upon oral administration”. Moreover, the “penetration in the central nervous system” value in data set [2] (confirmed by antagonism of agonist-induced hypothermia) is recorded as “good penetration”. For the same compound, the “penetration of the blood-brain barrier” value in data set [2] (in vivo) is recorded as “penetrates the blood-brain barrier”. Also, the “memory capacities of rats in the test of the central memory” value in data set [3] is listed as “improves the memory capacities of rats”. Further, the toxicity result in data set [4] is listed as “compatible with its use as a psychotropic drug”.

Values taken from patent US5624941A, “Pyrazole derivatives, method of preparing them and pharmaceutical compositions in which they are present” (Sanofi, priority 1992, dated 1997).
